In patent publication US20200190507A1, “Encoded Solid Phase Compound Library with Polynucleotide Based Barcoding” (The Scripps Research Institute, priority 2016, published 2020):
Entries after “also recorded” stand apart in the source; their conditions may differ.

System: ATB serum IgGs
Assay: Antigen competition binding analysis with beads displaying 2-B
Design: species or system human
Settings: pooled ATB serum, beads displaying 2-B; CFP 250 μg/mL

| Substance | competition with 2-B for binding ATB serum IgGs |
| --- | --- |
| Ag85A: Mycobacterium tuberculosis purified native protein Ag85A (Rv3804c), Strain H37Rv | competed; also recorded: compete strongly |
| recombinant Ag85A: Mycobacterium tuberculosis recombinant protein reference standard Ag85A, NR-49427 | unreactive; also recorded: did not compete |
